The first test deals with tumor endothelial cells (LL/2 lung cancer tumor). The experiment in a line: Lung LL2 ex vivo model of tumor angiogenesis. It is filed as cell-based, mouse. The following applies: Lung LL2 ex vivo; Conc. 20 μm; 48 hrs. As to the method: This example describes a procedure to prepare a primary tumor angiogenesis model for assessing the efficacy of anti-cancer candidate agents.
1. The day before the experiment, spray all necessary tools with 70% ethanol and sterilize them under UV light overnight, including blade, dissecting and micro-dissecting scissors and […]. Place 24-well dishes at 4° C. to pre-chill plates and thaw Matrigel 24 hours before tumor dissection.
2. Spray 70% ethanol on working bench. Prepare two sterile petri dishes with 10 mL sterile PBS. Steps 3 and 4 are for mouse tumor models. For fresh human tumor, directly go to step 5.
3. Euthanize the tumor-bearing mice. Spray 70% ethanol on the mouse and remove the tumor using sterilized dissecting tools (avoid the fur). Rinse the tumor in petri dish with sterile PBS to remove ethanol and fur. Transfer the tumor to a new petri dish with PBS for dissection. Place the dish on ice.
4. Using pre-chilled sterile pipet tips to seed regular Matrigel in 24 well plates on ice. Matrigel (30 μL) is dropped in the middle of each well without touching the edge of the well (avoid introducing bubbles if possible).
5. Cut the tumor in halves using the sterile blade. Identify and isolate healthy tumor tissue that is not necrotic and is within the tumor capsule. Cut the healthy tumor tissue into small pieces. For instance, a suitable size for the tumor tissue is 0.5 mm (H)×0.5 mm (L)×0.3 mm (D) with a total volume of 0.075 mm^3.
6. Gently transfer and embed each tumor piece in the Matrigel drop in the 24-well plate. Place the embedded piece in the bottom and middle of each Matrigel drop. Keep the plate on ice all the time.
7. After seeding the tumor pieces, plates are incubated in a 37° C. cell culture incubator without medium for 10 minutes in order for the Matrigel to solidify.
8. Endothelial Growth Medium (0.5 mL) is added to each well and incubated at 37° C. with 5% CO2. Wait until the new endothelial cells have grown out of the tumor or are larger than 3 mm in diameter until treatment. This usually takes 4 days for the LL2 Lewis lung cancer model and 7 days for the CT26 colon cancer model. For human tumor models, the growth time is typically 2-3 weeks, depending on the tumor type. Media is changed every 4 days during prolonged culture. Typically, when the tumor tissue grows to 2 mm in diameter, it is good for drug testing. A size of about 3 mm in diameter can make visualization easier.
9. When the assay is ready to be analyzed for cell death (e.g., 48 hours after drug addition), prepare the dye mixture by mixing 6 μL of green dye to stain live cells (5 mg/mL Fluorescein diacetate or FDA in DMSO) with 30 μL of red dye (2.5 mg/mL Propidium iodide or PI in PBS) to stain dead cells in an Eppendorf tube. The FDA dye needs to be stored frozen in a −20° C. freezer because it has a labile ester bond.
10. Add 1 μL of the dye mixture to each well of the 24-well dish. It is usually performed one 24-well dish at a time given the amount of time needed to take pictures (the green dye is not as stable in the cells in the long term).
11. Gently rock the dish a few times to mix the dye with the media in the wells and incubate the dish at 37° C. for 10 min (too long incubation can make the green signal too intense).
12. Wash each well with 0.5 mL of sterile PBS and then add 0.5 mL of phenol red free SFM to each well. Alternatively 0.5 mL of regular Endothelial Cell Growth Media can be added to each well if this well needs to be continuously maintained after the experiment.
13. Look through all wells on an inverted microscope using the 2× objective lens to observe morphological changes.
14. Taking pictures in the red and green channels would allow not only the recording of the result but also more accurate quantitation of the result. To take pictures for all the wells, first pick a well that has robust red and green signals. […]
Regarding “3-((4-(heptyloxy)phenyl)sulfonyl)-4-(4- (4-(2-mPEGoxyethyl)piperazin-1- yl)piperidin-1-yl)-6- (methylsulfinyl)quinoline [compound 280]”, the “48 hrs (morphology observations after 48 hours)” value was “*** (100% of endothelial cells vesicularize in cell shape)”.
On to “4-([1,4′:1′,4″-terpiperidin]-1″-yl)-6- (methyl(λ^1-oxidanyl)-λ^3-sulfanyl)-3-((4- (tetradecyloxy)phenyl)sulfonyl)quinoline [compound 347]”, for which the “48 hrs (morphology observations after 48 hours)” value is “*** (100% of endothelial cells vesicularize in cell shape)”.

Still in this test, the particulars now being: Lung LL2 ex vivo; Conc. 20 μm; drug treatment two days.
“3-((4-(heptyloxy)phenyl)sulfonyl)-4-(4- (4-(2-mPEGoxyethyl)piperazin-1- yl)piperidin-1-yl)-6- (methylsulfinyl)quinoline [compound 280]” yielded a Cell death of 100%.
“4-([1,4′:1′,4″-terpiperidin]-1″-yl)-6- (methyl(λ^1-oxidanyl)-λ^3-sulfanyl)-3-((4- (tetradecyloxy)phenyl)sulfonyl)quinoline [compound 347]” came in with a Cell death of 30%.
In the case of `COc1ccc(S(=O)(=O)c2cnc3ccc(OC(F)(F)F)cc3c2N2CCC(N3CCC(O)CC3)CC2)cc1` [compound 113, 1′-(3-((4-methoxyphenyl)sulfonyl)-6-(trifluoromethoxy)quinolin-4-yl)-[1,4′-bipiperidin]-4-ol], the Cell death is reported as 10%.
In turn, `COc1ccc(S(=O)(=O)c2cnc3ccc(CC#N)cc3c2N2CCC(N3CCCCC3)CC2)cc1` [compound 115, 2-(4-([1,4′-bipiperidin]-1′-yl)-3-((4-methoxyphenyl)sulfonyl)quinolin-6-yl)acetonitrile] came in with a Cell death of 10%.
The same measure, in the same setting: next, `O=S(=O)(c1ccc(OC(F)(F)F)cc1)c1cnc2ccc(OC(F)(F)F)cc2c1N1CCC(N2CCCCC2)CC1` [compound 120, 4-([1,4′-bipiperidin]-1′-yl)-6-(trifluoromethoxy)-3-((4-(trifluoromethoxy)phenyl)sulfonyl)quinoline]: 5%; `CCc1ccc(S(=O)(=O)c2cnc3ccc(OC(F)(F)F)cc3c2-n2cnnn2)cc1` [compound 125, 3-((4-ethylphenyl)sulfonyl)-4-(1H-tetrazol-1-yl)-6-(trifluoromethoxy)quinoline]: 10%.

Still in this test, the particulars now being: Lung LL2 ex vivo; Conc. 40 μm; drug treatment two days.
On to `CCc1ccc(S(=O)(=O)c2cnc3ccc(OC)cc3c2NN2CCN(C)CC2)cc1` [compound 83, 3-((4-ethylphenyl)sulfonyl)-6-methoxy-N-(4-methylpiperazin-1-yl)quinolin-4-amine], for which the Cell death was found to be 20%.
For `CNC(=O)c1ccc2ncc(S(=O)(=O)c3ccc(OC)cc3)c(N3CCC(N4CCCCC4)CC3)c2c1` [compound 143, 4-([1,4′-bipiperidin]-1′-yl)-3-((4-methoxyphenyl)sulfonyl)-N-methylquinoline-6-carboxamide], the Cell death is listed as 40%.

The test is the same for the next values; noted with them: Mus musculus, Endothelial cell, 48 h, read-out: Cell death.
In the case of `COc1ccc(S(=O)(=O)c2cnc3ccc(OC(F)(F)F)cc3c2NCCO)cc1OC` [compound 73, 2-((3-((3,4-dimethoxyphenyl)sulfonyl)-6-(trifluoromethoxy)quinolin-4-yl)amino)ethan-1-ol], the cytotoxicity at 40 µM was 10%.
Take `CCc1ccc(S(=O)(=O)c2cnc3ccc(OC(F)(F)F)cc3c2N2CCC(N(CC)CC)CC2)cc1` [compound 103, N,N-diethyl-1-(3-((4-ethylphenyl)sulfonyl)-6-(trifluoromethoxy)quinolin-4-yl)piperidin-4-amine]: the cytotoxicity at 20 µM was found to be 10%.
`CCc1ccc(S(=O)(=O)c2cnc3ccc(OC(F)(F)F)cc3c2NCCCCCO)cc1` [compound 104, 5-((3-((4-ethylphenyl)sulfonyl)-6-(trifluoromethoxy)quinolin-4-yl)amino)pentan-1-ol]: the cytotoxicity at 20 µM came to 20%.
Same read-out and setting: to `CCc1ccc(S(=O)(=O)c2cnc3ccc(OC(F)(F)F)cc3c2NN2CCCCC2)cc1` [compound 105, 3-((4-ethylphenyl)sulfonyl)-N-(piperidin-1-yl)-6-(trifluoromethoxy)quinolin-4-amine] belongs 0%; to `CCc1ccc(S(=O)(=O)c2cnc3ccc(OC(F)(F)F)cc3c2NCc2ccncc2)cc1` [compound 106, 3-((4-ethylphenyl)sulfonyl)-N-(pyridin-4-ylmethyl)-6-(trifluoromethoxy)quinolin-4-amine], 5%; to `CCc1ccc(S(=O)(=O)c2cnc3ccc(OC(F)(F)F)cc3c2Nc2ccncc2)cc1` [compound 107, 3-((4-ethylphenyl)sulfonyl)-N-(pyridin-4-yl)-6-(trifluoromethoxy)quinolin-4-amine], 0%.
Regarding `CCc1ccc(S(=O)(=O)c2cnc3ccc(OC(F)(F)F)cc3c2-n2cccc2)cc1` [compound 108, 3-((4-ethylphenyl)sulfonyl)-4-(1H-pyrrol-1-yl)-6-(trifluoromethoxy)quinoline], the cytotoxicity at 20 µM was 0%.
As to `CCc1ccc(S(=O)(=O)c2cnc3ccc(OC(F)(F)F)cc3c2-n2cccn2)cc1` [compound 109, 3-((4-ethylphenyl)sulfonyl)-4-(1H-pyrazol-1-yl)-6-(trifluoromethoxy)quinoline], the cytotoxicity at 20 µM worked out at 0%.
On the same count and under the same terms, to `CCc1ccc(S(=O)(=O)c2cnc3ccc(OC(F)(F)F)cc3c2NCCCCO)cc1` [compound 111, 4-((3-((4-ethylphenyl)sulfonyl)-6-(trifluoromethoxy)quinolin-4-yl)amino)butan-1-ol] belongs 30%.
Still for that read-out and setting: next, `COc1ccc(S(=O)(=O)c2cnc3ccc([N+](=O)[O-])cc3c2N2CCC(N3CCCCC3)CC2)cc1` [compound 114, 4-([1,4′-bipiperidin]-1′-yl)-3-((4-methoxyphenyl)sulfonyl)-6-nitroquinoline]: 5%; `COc1ccc(S(=O)(=O)c2cnc3cc(OC)c(OC)cc3c2N2CCC(N3CCCCC3)CC2)cc1OC` [compound 122, 4-([1,4′-bipiperidin]-1′-yl)-3-((3,4-dimethoxyphenyl)sulfonyl)-6,7-dimethoxyquinoline]: 10%.
Still for that read-out and setting: next, `CCc1ccc(S(=O)(=O)c2cnc3ccc(OC(F)(F)F)cc3c2NN2CCOCC2)cc1` [compound 126, N-(3-((4-ethylphenyl)sulfonyl)-6-(trifluoromethoxy)quinolin-4-yl)morpholin-4-amine]: 10%.
For the molecule `CCOC(=O)c1ccc2ncc(S(=O)(=O)c3ccc(CC)cc3)c(-n3nnc4ccccc43)c2c1` [compound 133, ethyl 4-(1H-benzo[d][1,2,3]triazol-1-yl)-3-((4-ethylphenyl)sulfonyl)quinoline-6-carboxylate], the cytotoxicity at 20 µM amounted to 10%.
Regarding `CCOC(=O)c1ccc2ncc(S(=O)(=O)c3ccc(OC)cc3)c(-n3ccnc3)c2c1` [compound 141, ethyl 4-(1H-imidazol-1-yl)-3-((4-methoxyphenyl)sulfonyl)quinoline-6-carboxylate], the cytotoxicity at 20 µM was found to be 90%.
For the molecule `CCCCOc1ccc(S(=O)(=O)c2cnc3ccc(SC)cc3c2N2CCC(N3CCC(O)CC3)CC2)cc1` [compound 162, 1′-(3-((4-butoxyphenyl)sulfonyl)-6-(methylthio)quinolin-4-yl)-[1,4′-bipiperidin]-4-ol], the cytotoxicity at 40 µM was determined as 70%.
For the molecule `CCCCOc1ccc(S(=O)(=O)c2cnc3ccc([S+](C)[O-])cc3c2N2CCC(N3CCCCC3)CC2)cc1` (stereo not drawn) [compound 167, 4-([1,4′-bipiperidin]-1′-yl)-3-((4-butoxyphenyl)sulfonyl)-6-(methylsulfinyl)quinoline], the cytotoxicity at 20 µM was determined as 40%.
Take `CCCCOc1ccc(S(=O)(=O)c2cnc3ccc([S+](C)[O-])cc3c2N2CCC(N3CCC(O)CC3)CC2)cc1` (stereo not drawn) [compound 168, 1′-(3-((4-butoxyphenyl)sulfonyl)-6-(methylsulfinyl)quinolin-4-yl)-[1,4′-bipiperidin]-4-ol]: the cytotoxicity at 20 µM amounted to 10%.
